From ChEMBL document CHEMBL1134428, “Combretoxazolones: synthesis, cytotoxicity and antitumor activity” (Bioorg Med Chem Lett, 2001)

Experiments:
A549 [1] = assay: Concentration which produces 50% inhibition of growth of human lung carcinoma cell line A549; assay type: functional, cell-based
B16 [2] = assay: Concentration which produces 50% inhibition of growth of murine melanoma B16 cell line; assay type: functional, cell-based; conditions: Mus musculus
HCT-116 [3] = assay: Concentration which produces 50% inhibition of growth of human colon tumor HCT 116; assay type: functional, cell-based
MCF7 [4] = assay: Concentration which produces 50% inhibition of growth of human breast tumor MCF-7 cell line; assay type: functional, cell-based
PC-3 [5] = assay: Concentration which produces 50% inhibition of growth of prostate tumor cell line PC-3; assay type: functional, cell-based; conditions: Homo sapiens
A549 [6] = assay: Compound was tested for inhibition of growth of human lung carcinoma cell line A549 up to a conc of 10 uM; NI means no inhibition; assay type: functional, cell-based
MCF7 [7] = assay: Compound was tested for inhibition of growth of human breast tumor MCF-7 cell line up to a conc of 10 uM; NI means no inhibition; assay type: functional, cell-based
PC-3 [8] = assay: Compound was tested for inhibition of growth of prostate tumor cell line PC-3 up to a conc of 10 uM; NI means no inhibition; assay type: functional, cell-based, Homo sapiens
HCT-116 [9] = assay: Compound was tested for inhibition of growth of human colon tumor HCT116 up to a conc of 10 uM; NI means no inhibition; assay type: functional, cell-based
B16 [10] = assay: In vivo antitumor activity against BDF1 mice bearing B16 murine melanoma cells at a dose of 100 mg/kg/day; assay type: functional, Mus musculus
B16 [11] = assay: In vivo antitumor activity against BDF1 mice bearing B16 murine melanoma cells at a dose of 10 mg/kg/day; assay type: functional, Mus musculus
B16 [12] = assay: In vivo antitumor activity against BDF1 mice bearing B16 murine melanoma cells at a dose of 30 mg/kg/day; assay type: functional, Mus musculus
B16 [13] = assay: In vivo antitumor activity against BDF1 mice bearing B16 murine melanoma cells at a dose of 3 mg/kg/day; assay type: functional, Mus musculus

Compound	IC50 (A549 [1]) [nM]	IC50 (B16 [2]) [nM]	IC50 (HCT-116 [3]) [nM]	IC50 (MCF7 [4]) [nM]	IC50 (PC-3 [5]) [nM]	IC50 (A549 [6])	IC50 (MCF7 [7])	IC50 (PC-3 [8])	IC50 (HCT-116 [9])	Inhibition rate (B16 [10]) [%]	Inhibition rate (B16 [11]) [%]	Inhibition rate (B16 [12]) [%]	Inhibition rate (B16 [13]) [%]
COc1ccc(-c2coc(=O)n2-c2cc(OC)c(OC)c(OC)c2)cc1O	3.1	0.9	1.7	2.9	2.3	–	–	–	–	–	–	–	–
COc1cc(-c2nc(O)oc2-c2ccc3ccccc3c2)cc(OC)c1OC	10.8	7.4	11.2	16.7	7.1	–	–	–	–	–	–	–	–
COc1ccc(-n2c(-c3cc(OC)c(OC)c(OC)c3)coc2=O)cc1	–	1880	–	–	–	Not Active	Not Active	Not Active	Not Active	–	–	–	–
COc1ccc(-c2coc(=O)n2-c2cc(OC)c(OC)c(OC)c2)cc1N	4.3	1.1	3.2	1.8	2.5	–	–	–	–	67	34	61	–
COc1cc(-n2c(-c3ccc4c(c3)OCO4)coc2=O)cc(OC)c1OC	64.5	45	57.4	39.7	70.6	–	–	–	–	–	–	–	–
COc1ccc(-c2oc(O)nc2-c2cc(OC)c(OC)c(OC)c2)cc1	16.9	14.5	21.7	28.4	20.1	–	–	–	–	–	–	–	–
COc1cc(-c2nc(O)oc2-c2ccc3c(c2)OCO3)cc(OC)c1OC	63.1	89.3	101	78.5	112	–	–	–	–	–	–	–	–
COc1ccc(-c2oc(O)nc2-c2cc(OC)c(OC)c(OC)c2)cc1N	3.8	2.4	3.7	4.9	2.1	–	–	–	–	–	–	–	–
COc1ccc(-c2coc(=O)n2-c2cc(OC)c(OC)c(OC)c2)cc1	19.9	7.9	11	10.5	7.5	–	–	–	–	–	–	–	–
COc1ccc(-c2nc(O)oc2-c2cc(OC)c(OC)c(OC)c2)cc1	–	1390	–	–	–	Not Active	Not Active	Not Active	Not Active	–	–	–	–
COc1ccc(-c2oc(O)nc2-c2cc(OC)c(OC)c(OC)c2)cc1O	7.9	5.4	6.1	5.7	6.4	–	–	–	–	–	–	–	–
COc1cc(-n2c(-c3ccc4ccccc4c3)coc2=O)cc(OC)c1OC	5.9	5.8	4.9	3.7	3.1	–	–	–	–	–	–	–	–
COc1ccc(/C=C\c2cc(OC)c(OC)c(OC)c2)cc1O [COMBRETASTATIN A4]	2.1	1	0.9	2.7	2.7	–	–	–	–	–	–	–	–
COc1cccc2c1C(=O)c1c(O)c3c(c(O)c1C2=O)C[C@@](O)(C(=O)CO)C[C@@H]3O[C@H]1C[C@H](N)[C@H](O)[C@H](C)O1 [DOXORUBICIN]	–	–	–	–	–	–	–	–	–	–	–	–	55
